Measured values published in PubChem BioAssay (NCI).
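96-well plates; 48 h exposure; 5 concentrations. Endpoints by linear interpolation between flanking doses. Not reached: highest tested concentration assigned. The concentration for 50% growth inhibition is given as GI50. The concentration for full growth arrest is given as TGI.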

Columns and labels:
Test in all cases: NCI tumour cell line growth inhibition, 48 h
[1] = system: M14 melanoma
[2] = system: MALME-3M melanoma
[3] = system: UO-31 renal
[4] = system: ACHN renal
[5] = system: SN12C renal
[6] = system: CAKI-1 renal
[7] = system: HCC-2998 colon
[8] = system: HCT-15 colon
[9] = system: HCT-116 colon
[10] = system: UACC-62 melanoma

Row | SMILES | GI50 [1] | TGI [1] | GI50 [2] | TGI [2] | GI50 [3] | TGI [3] | GI50 [4] | TGI [4] | GI50 [5] | TGI [5] | GI50 [6] | TGI [6] | GI50 [7] | TGI [7] | GI50 [8] | TGI [8] | GI50 [9] | TGI [9] | GI50 [10] | TGI [10]
1 | NCCCn1c2c(c3ccc([N+](=O)[O-])cc3c1=O)C(=O)c1cc(F)ccc1-2 | 29.7 nM | 104 nM | 27.5 nM | 161 nM | 32.4 nM | 190 nM | 24.1 nM | 142 nM | 43.9 nM | 805 nM | 49.8 nM | 266 nM | 36.7 nM | 233 nM | 59.5 nM | 647 nM | < 11.2 nM | 134 nM | 36 nM | 165 nM
2 | CN1C(=O)CN2C(Cl)(Cl)C2(c2ccccc2)c2cc(Cl)ccc21 (stereo not given) | – | > 100000 nM | – | > 100000 nM | – | > 100000 nM | – | > 100000 nM | – | > 100000 nM | – | > 100000 nM | – | > 100000 nM | – | > 100000 nM | – | > 100000 nM | – | > 100000 nM
